Measurements as given in patent US20140037661A1, “Wheat Antigens and Peptides for Diagnosis of Wheat Induced Hypersensitivity” (PHADIA AB, priority 2011, published 2014).

System: serum-IgA from CD patients
Assay: IgA reactivity ELISA to synthetic GG1 peptides
Assay type: binding, human
Conditions: 5 μg/ml coated; n=8 CD, 2 CD on gluten free diet, 3 healthy controls; FIG. 16
Description: ELISA plates were coated with 100 ul of 5 μg/ml of the 19 overlapping peptides, rGG1, alpha-gliadin peptide p56-75 and deamidated alpha gliadin peptide p56-75 (Q65E) and probed with serum-IgA from CD patients, CD patients on gluten free diet and healthy controls and detected using mouse anti-human IgA1/A2 and sheep anti-mouse IgG-HRP labelled antibody. Human serum albumin (HSA) was used as control (n=8 CD patients, 2 CD patients on gluten free diet and 3 healthy controls). […] Each of the synthetic GG1 peptides no.

QVMRQQCCQQLAQIPQQLQCA (listed as Triticum aestivum) [compound 13]
IgA reactivity of celiac disease patients' serum: specific IgA reactivity
